Assay results reported in US9682151B2, “Peptides whose uptake in cells is controllable” (The Regents of the University of California, priority 2009, dated 2017).

What was measured:
Assay type in all cases: in vivo, mice
[1] = Fluorescence uptake of Cy5-labeled selective transport molecules in tumor and muscle (Table 2), HT1080; details: nude, mouse, in vivo, iv; HT1080 xenograft
Procedure: (§1) Xenografts with HT1080 human fibroscarcoma cells (ATCC) or MDA-MB 435 human melanoma cells were used. Allografts were generated in the lab with 8119 murine mammary adenocarcinoma cells and B16F10 murine melanoma cells. 1×10^6 cells (either 8119 or BI6F10) were injected intramuscularly into the left flank of albino C57BL/6 mice. Tumor allografts were monitored until tumor size was approximately 1 cm in largest diameter (approximately 7-10 days).
(§2) Briefly 30 mg tissues was homogenized and heated in SDS buffer, frozen, and then imaged by fluorescence. SUV ((moles/g tissue)/(moles injected/weight of the animal)) values were determined by comparing experimental fluorescence to standard curves derived by peptide spiked tissue processed similarly.
(§3) To test whether selective transport molecules are taken up differentially between tumor and normal tissue, allografts derived from spontaneous mammary adenocarcinoma tumors in transgenic mice (line 8119, MMTV-PyMT) and the murine melanoma cell line B16F10 transplanted into immune competent mice, and human cancer cell lines (MDA-MB 435 melanoma and HT1080 fibrosarcoma) xenografted into nude mice, were imaged after intravenous injection of Cy5-labeled selective transport molecules and sufficient time for elimination of uncleaved selective transport molecules. Cy5 was chosen as a labeling marker because of its reduced tissue absorption in the near infrared range.

[2] = tested on: HT1080 human fibroscarcoma cells; experiment: as above; details: HT1080 xenograft
Procedure: as §1, §2, §3

HT1080 cells = experiment: Residual tumor cell quantification with Alu PCR after guided surgery; details: free 10 nmoles 6 hours, dendrimer 2 nmoles 48 hours prior to surgery
Procedure: Animals used for quantification of residual tumor cells after surgery were performed on xenograft of HT1080 cells generated as detailed above Animals were anesthetized with 80 mg/kg ketamine and 40 mg/kg midazolam. Following skin incision and retraction, tumors were removed with microsurgical technique using a dissecting microscope (Zeiss, Lumar).
Fluorescence guidance of tumor excision was performed as detailed above for the survival studies with GFP, free selective transport molecule (10 nmoles; 6 hours prior to surgery) or dendrimer selective transport molecule (2 nmoles; 48 hours prior to surgery). For animals in the GFP guidance arm, the surgical field was assessed through the dissecting scope with excitation and emission parameters for GFP. […] Following completion of tumor resection, the remaining surgical bed was resected with at least a 5 mm margin in all contiguous dimensions and analyzed for Alu sequences. Alu PCR analysis of the remaining surgical bed for residual tumor cells were performed. […]
To quantify the efficacy of tumor excision with selective transport molecule guidance, we used Alu PCR to measure residual human (cancer) cells remaining in the tumor bed after surgical excision.

[3] = Fluorescence uptake of Cy5-labeled selective transport molecules in tumor and muscle (Table 2), MDA-MB 435; details: nude, mouse, in vivo, iv; MDA-MB 435 xenograft
Procedure: as §1, §2, §3

[4] = tested on: MDA-MB 435 human melanoma cells; experiment: as above
Procedure: as §1, §2, §3

[5] = tested on: B16F10 murine melanoma cells; experiment: Fluorescence uptake of Cy5-labeled selective transport molecules in tumor and muscle (Table 2), B16F10; details: B16F10 allograft
Procedure: as §1, §2, §3

[6] = as above; details: albino C57BL/6, mouse, in vivo, iv; B16F10 allograft
Procedure: as §1, §2, §3

[7] = Fluorescence uptake of Cy5-labeled selective transport molecules in tumor and muscle (Table 2), 8119; details: albino C57BL/6, mouse, in vivo, iv; 8119 allograft
Procedure: as §1, §2, §3

[8] = tested on: 8119 murine mammary adenocarcinoma cells; experiment: as above; details: 8119 allograft
Procedure: as §1, §2, §3

**Q.** Which tissue to tissue ratio [1] does the source give for `CCN1C(=CC=CC=CC2=[N+](CCCCCC(=O)NCCN3C(=O)CC(SC[C@@H](NC(=O)[C@@H](CCCNC(=N)N)NC(=O)[C@@H](CCCNC(=N)N)NC(=O)[C@@H](CCCNC(=N)N)NC(=O)[C@@H](CCCNC(=N)N)NC(=O)[C@@H](CCCNC(=N)N)NC(=O)[C@@H](CCCNC(=N)N)NC(=O)[C@@H](CCCNC(=N)N)NC(=O)[C@@H](CCCNC(=N)N)NC(=O)[C@@H](CCCNC(=N)N)NC(=O)CNC(=O)[C@H](C)NC(=O)[C@H](CSC)NC(=O)CNC(=O)[C@H](CC(C)C)NC(=O)[C@@H]4CCCN4C(=O)COCCNC(=O)[C@@H](CCC(=O)O)NC(=O)[C@@H](CCC(=O)O)NC(=O)[C@@H](CCC(=O)O)NC(=O)[C@@H](CCC(=O)O)NC(=O)[C@@H](CCC(=O)O)NC(=O)[C@@H](CCC(=O)O)NC(=O)[C@@H](CCC(=O)O)NC(=O)[C@@H](CCC(=O)O)NC(=O)CCC(=O)O)C(N)=O)C3=O)c3ccc(S(=O)(=O)[O-])cc3C2(C)C)C(C)(C)c2cc(S(=O)(=O)O)ccc21` (single isomer, unassigned) [Free Selective Transport Molecules] here?
**A.** 3.82

**Q.** And the “Ratio (tumor to muscle)” value [2]?
**A.** 3.82

**Q.** And the “Muscle (fluorescence uptake)” value ([2]; Cy5 label, intravenous)?
**A.** 0.11 ± 0.08

**Q.** And the “Tumor (fluorescence uptake)” value ([2]; Cy5 label, intravenous)?
**A.** 0.42 ± 0.08

**Q.** What about the “log [DNA] (residual tumor DNA in surgical bed)” value (HT1080 cells) of the same molecule?
**A.** 4.67±0.33

**Q.** And the tissue to tissue ratio [3]?
**A.** 2.45

**Q.** And the “Ratio (tumor to muscle)” value ([4]; MDA-MB 435 xenograft)?
**A.** 2.45

**Q.** And the “Muscle (fluorescence uptake)” value ([4]; MDA-MB 435 xenograft, Cy5 label, intravenous)?
**A.** 0.29 ± 0.068

**Q.** And the “Tumor (fluorescence uptake)” value ([4]; MDA-MB 435 xenograft, Cy5 label, intravenous, SUV defined)?
**A.** 0.17 ± 0.05

**Q.** What about the “contrast between tumor and adjacent normal tissue” value ([4]; same figures as the MDA-MB 435 ratios of Table 2) of the same molecule?
**A.** 2.45 fold

**Q.** What about the “Ratio (tumor to muscle)” value [5] of the same molecule?
**A.** 2.4

**Q.** What about the “Muscle (fluorescence uptake)” value ([5]; Cy5 label, intravenous) of the same molecule?
**A.** 0.10 ± 0.03

**Q.** And the “Tumor (fluorescence uptake)” value ([5]; Cy5 label, intravenous)?
**A.** 0.24 ± 0.06

**Q.** What about the tissue to tissue ratio [6] of the same molecule?
**A.** 2.4

**Q.** What about the tissue to tissue ratio [7] of the same molecule?
**A.** 3.5

**Q.** And the “Ratio (tumor to muscle)” value [8]?
**A.** 3.5

**Q.** What about the “Muscle (fluorescence uptake)” value ([8]; Cy5 label, intravenous) of the same molecule?
**A.** 0.11 ± 0.06

**Q.** And the “Tumor (fluorescence uptake)” value ([8]; Cy5 label, intravenous)?
**A.** 0.39 ± 0.12
